Test results from publication PMC6514978, “Synthesis, Antibacterial Activities, Mode of Action and Acute Toxicity Studies of New Oxazolidinone-Fluoroquinolone Hybrids” (Molecules, 2019).
In brackets after ≈: the same amount, converted by molar mass.

Legend:
[1] = test system: S. epidermidis (10) clinical isolates; assay: Susceptibility of clinical isolates (MIC); format: cell-based, Staphylococcus epidermidis; settings: for MIC50 / MIC90 / MIC: Staphylococcus epidermidis, S. epidermidis, 10 clinical isolates; for MIC50: read-out: MIC50; for MIC90: read-out: MIC90; for MIC: read-out: MIC Range
Method: (§1) Susceptibility testing of oxazolidinone-fluoroquinolone hybrids against various bacteria was performed by the broth microdilution method as outlined by the Clinical and Laboratory Standards Institute (CLSI). Three types of media, including cation-adjusted Mueller Hinton broth, Haemophilus Test Medium and cation-adjusted Mueller Hinton broth that contained 3%–5% lysed horse blood, were used to culture the corresponding bacteria. […] A final inoculum of 5 × 10^5 CFU/mL was used and plates were read after incubation for 16–24 h at 35 °C. […] Standard quality control strains (ATCC) were included throughout. Each determination was repeated in triplicate.

[2] = test system: E. faecalis (72) clinical isolates; assay: Susceptibility of clinical isolates (MIC); format: cell-based, Enterococcus faecalis; settings: for MIC Range / MIC50 / MIC90: E. faecalis, 72 clinical isolates; for MIC50 / MIC90: Enterococcus faecalis
Method: as §1

MRSE = assay: MIC against drug-resistant strain; format: cell-based, S. epidermidis; settings: Staphylococcus epidermidis, read-out: MIC
Method: (§2) 6 standard strains and 3 clinical isolates were used to the preliminary evaluation of in vitro antibacterial activities of oxazolidinone-fluoroquinolone hybrids.
as §1

[3] = test system: S. pneumoniae (13) clinical isolates; assay: Susceptibility of clinical isolates (MIC); format: cell-based, Streptococcus pneumoniae; settings: for MIC50 / MIC90: Streptococcus pneumoniae; for MIC50: read-out: MIC50; for MIC90: read-out: MIC90
Method: as §1

[4] = test system: H. parasuis (34) clinical isolates; assay: Susceptibility of clinical isolates (MIC); format: cell-based, Haemophilus parasuis; settings: H. parasuis, 34 clinical isolates; for MIC50 / MIC90: Glaesserella parasuis; for MIC50: read-out: MIC50; for MIC90: read-out: MIC90
Method: as §1

MRSA = assay: MIC against drug-resistant strain; format: cell-based; settings: Staphylococcus aureus, read-out: MIC
Method: as §2, §1

[5] = test system: VAN and quinolone-resistant S. pneumoniae; assay: MIC against drug-resistant strain; format: cell-based; settings: Streptococcus pneumoniae; S. pneumoniae, VAN and quinolone-resistant; read-out: MIC
Method: as §2, §1

[6] = test system: LZD and quinolone-resistant E. faecium; assay: MIC against drug-resistant strain; format: cell-based; settings: Enterococcus faecium; E. faecium, LZD and quinolone-resistant; read-out: MIC
Method: as §2, §1

CIP-resistant S. aureus = assay: MIC against drug-resistant strain; format: cell-based; settings: Staphylococcus aureus; S. aureus, CIP-resistant; read-out: MIC
Method: as §2, §1

[7] = test system: CIP-resistant S. haemolyticus; assay: MIC against drug-resistant strain; format: cell-based; settings: Staphylococcus haemolyticus; S. haemolyticus, CIP-resistant; read-out: MIC
Method: as §2, §1

[8] = test system: VAN and quinolone-resistant E. faecium; assay: MIC against drug-resistant strain; format: cell-based; settings: Enterococcus faecium; E. faecium, VAN and quinolone-resistant; read-out: MIC
Method: as §2, §1

[9] = test system: S. haemolyticus (32) clinical isolates; assay: Susceptibility of clinical isolates (MIC); format: cell-based, Staphylococcus haemolyticus; settings: for MIC50 / MIC90 / MIC: Staphylococcus haemolyticus, S. haemolyticus, 32 clinical isolates; for MIC50: read-out: MIC50; for MIC90: read-out: MIC90; for MIC: read-out: MIC Range
Method: as §1

[10] = test system: E. faecium (47) clinical isolates; assay: Susceptibility of clinical isolates (MIC); format: cell-based, Enterococcus faecium; settings: for MIC Range / MIC50 / MIC90: E. faecium, 47 clinical isolates; for MIC50 / MIC90: Enterococcus faecium; for MIC50: read-out: MIC50; for MIC90: read-out: MIC90
Method: as §1

[11] = test system: S. suis (9) clinical isolates; assay: Susceptibility of clinical isolates (MIC); format: cell-based, Streptococcus suis; settings: Streptococcus suis, S. suis, 9 clinical isolates; for MIC50: read-out: MIC50; for MIC90: read-out: MIC90; for MIC: read-out: MIC Range
Method: as §1

[12] = test system: S. aureus (46) clinical isolates; assay: Susceptibility of clinical isolates (MIC); format: cell-based, Staphylococcus aureus; settings: for MIC50 / MIC90 / MIC: Staphylococcus aureus, S. aureus, 46 clinical isolates; for MIC50: read-out: MIC50; for MIC90: read-out: MIC90; for MIC: read-out: MIC Range
Method: as §1

[13] = test system: LZD-resistant E. faecalis; assay: microbe, parasite or virus in culture; format: cell-based; settings: Enterococcus faecalis
Method: as §2, §1

[14] = S. epidermidis clinical isolates, CLSI criteria
[15] = S. pneumoniae clinical isolates, CLSI criteria
[16] = S. pneumoniae, 13 clinical isolates
[17] = S. haemolyticus clinical isolates, CLSI criteria
[18] = E. faecium clinical isolates, CLSI criteria
[19] = S. aureus clinical isolates, CLSI criteria

COc1c(N2CCNC(C)C2)c(F)cc2c(=O)c(C(=O)O)cn(C3CC3)c12 (centres unmarked) [GAFX, gatifloxacin]
CLSI %R (resistant) [1, 14]: 50.0%
CLSI %S (susceptible) [1, 14]: 30.0%
MIC50 [1]: 1 µg/mL (≈ 2.66 µM)
MIC90 [1]: 2 µg/mL (≈ 5.33 µM)
MIC [1]: 0.125 to 2 µg/mL (≈ 0.333 to 5.33 µM)
CLSI %S (susceptible) ([2]; E. faecalis clinical isolates, CLSI criteria): 94.6/- %
MIC Range [2]: 0.125 to 2 µg/mL
MIC50 [2]: 0.25 µg/mL (≈ 0.666 µM)
MIC90 [2]: 0.5 µg/mL (≈ 1.33 µM)
MIC (MRSE): ≤ 0.0625 µg/mL
CLSI %R (resistant) [3, 15]: 92.3%
CLSI %S (susceptible) [3, 15]: 7.7%
MIC Range [3, 16]: 4 to 32 µg/mL
MIC50 [3, 16]: 4 µg/mL (≈ 10.7 µM)
MIC90 [3, 16]: 32 µg/mL (≈ 85.2 µM)
MIC50 [4]: ≤ 0.0625 µg/mL
MIC90 [4]: 1 µg/mL (≈ 2.66 µM)
MIC Range [4]: ≤0.0625 to 1 µg/mL
MIC (MRSA): 0.125 µg/mL (≈ 0.333 µM)
MIC [5]: > 32 µg/mL
MIC [6]: 8 µg/mL (≈ 21.3 µM)
MIC (CIP-resistant S. aureus): 2 µg/mL (≈ 5.33 µM)
MIC [7]: 2 µg/mL (≈ 5.33 µM)
MIC [8]: 16 µg/mL (≈ 42.6 µM)
CLSI %R (resistant) [9, 17]: 3.8%
CLSI %S (susceptible) [9, 17]: 96.2%
MIC50 [9]: 0.125 µg/mL (≈ 0.333 µM)
MIC90 [9]: 0.25 µg/mL (≈ 0.666 µM)
MIC [9]: 0.0625 to 2 µg/mL (≈ 0.166 to 5.33 µM)
CLSI %R (resistant) [10, 18]: 13.8%
CLSI %S (susceptible) [10, 18]: 86.2%
MIC Range [10]: 0.25 to 8 µg/mL
MIC50 [10]: 1 µg/mL (≈ 2.66 µM)
MIC90 [10]: 8 µg/mL (≈ 21.3 µM)
MIC50 [11]: ≤ 0.0625 µg/mL
MIC90 [11]: 4 µg/mL (≈ 10.7 µM)
MIC [11]: 0.0625 to 4 µg/mL (≈ 0.166 to 10.7 µM)
CLSI %R (resistant) [12, 19]: 42.4%
CLSI %S (susceptible) [12, 19]: 45.5%
MIC50 [12]: 1 µg/mL (≈ 2.66 µM)
MIC90 [12]: 2 µg/mL (≈ 5.33 µM)
MIC [12]: 0.0625 to 2 µg/mL (≈ 0.166 to 5.33 µM)
MIC [13]: 0.5 µg/mL (≈ 1.33 µM)

CC1CCc2c(N3CCC(O)CC3)c(F)cc3c(=O)c(C(=O)O)cn1c23 (centres unmarked) [NDFX, nadifloxacin]
MIC50 [1]: 1 µg/mL (≈ 2.77 µM)
MIC90 [1]: 2 µg/mL (≈ 5.55 µM)
MIC [1]: 0.0625 to 2 µg/mL (≈ 0.173 to 5.55 µM)
MIC Range [2]: 0.125 to 2 µg/mL
MIC50 [2]: 0.25 µg/mL (≈ 0.694 µM)
MIC90 [2]: 1 µg/mL (≈ 2.77 µM)
MIC (MRSE): 0.125 µg/mL (≈ 0.347 µM)
MIC50 [3, 16]: 16 µg/mL (≈ 44.4 µM)
MIC90 [3, 16]: > 32 µg/mL
MIC50 [4]: ≤ 0.0625 µg/mL
MIC90 [4]: 1 µg/mL (≈ 2.77 µM)
MIC Range [4]: ≤0.0625 to 1 µg/mL
MIC (MRSA): ≤ 0.0625 µg/mL
MIC [5]: > 32 µg/mL
MIC [6]: 16 µg/mL (≈ 44.4 µM)
MIC (CIP-resistant S. aureus): 0.5 µg/mL (≈ 1.39 µM)
MIC [7]: 4 µg/mL (≈ 11.1 µM)
MIC [8]: 32 µg/mL (≈ 88.8 µM)
MIC50 [9]: ≤ 0.0625 µg/mL
MIC90 [9]: 0.5 µg/mL (≈ 1.39 µM)
MIC [9]: 0.0625 to 4 µg/mL (≈ 0.173 to 11.1 µM)
MIC Range [10]: 0.5 to 16 µg/mL
MIC50 [10]: 2 µg/mL (≈ 5.55 µM)
MIC90 [10]: 8 µg/mL (≈ 22.2 µM)
MIC50 [11]: ≤ 0.0625 µg/mL
MIC90 [11]: 2 µg/mL (≈ 5.55 µM)
MIC [11]: 0.0625 to 4 µg/mL (≈ 0.173 to 11.1 µM)
MIC50 [12]: 0.5 µg/mL (≈ 1.39 µM)
MIC90 [12]: 0.5 µg/mL (≈ 1.39 µM)
MIC [12]: 0.0625 to 2 µg/mL (≈ 0.173 to 5.55 µM)
MIC [13]: 1 µg/mL (≈ 2.77 µM)
